This is an account of results in patent publication EP4140986A1, “PYRAZINE COMPOUNDS FOR THE CONTROL OF INVERTEBRATE PESTS” (BASF SE, priority 2021, dated 2023).

SMILES strings stand for the structures.

What is called mortality is the percentage killed.

What all share (assay type): in vivo
The test system of series [1] is yellow fever mosquito (Aedes aegypti). The experiment in a line: whole plant or invertebrate. The conditions noted are these: 48 h, larval mortality, 2 days, read-out: mortality in comparison with untreated controls. The method, then: For evaluating control of yellow fever mosquito (Aedes aegypti) the test unit consisted of 96-well-microtiter plates containing 200µl of tap water per well and 5-15 freshly hatched A. aegypti larvae.
The active compounds were formulated using a solution containing 75% (v/v) water and 25% (v/v) DMSO. Different concentrations of formulated compounds or mixtures were sprayed onto the insect diet at 2.5µl, using a custom-built micro atomizer, at two replications.
After application, microtiter plates were incubated at 28 ± 1°C, 80 ± 5 % RH for 2 days. Larval mortality was then visually assessed.

Series [2] deals with tobacco budworm (Heliothis virescens). The experiment in a line: Tobacco budworm test, insect diet with eggs in 96-well microtiter plates. The conditions noted are these: 120 h, egg and larval mortality, 5 days, read-out: mortality in comparison with untreated controls. The protocol: For evaluating control of tobacco budworm (Heliothis virescens), the test unit consisted of 96-well-microtiter plates containing an insect diet and 15-25 H. virescens eggs.
The compounds were formulated using a solution containing 75% v/v water and 25% v/v DMSO. Different concentrations of formulated compounds were sprayed onto the insect diet at 10 µl using a custom-built micro atomizer, at two replications.
After application, microtiter plates were incubated at about 28 ± 1°C and about 80 ± 5 % relative humidity for 5 days. Egg and larval mortality was then visually assessed.

Series [3] deals with Southern armyworm (Spodoptera eridania), 2nd instar larvae. The experiment in a line: Southern armyworm foliar spray test on Lima bean plants. The conditions noted are these: 2nd instar larvae on sprayed Lima bean plants, 4 days after treatment. The method, then:
The active compounds were formulated by a Tecan liquid handler in 100% cyclohexanone as a 10,000-ppm solution supplied in tubes. The 10,000-ppm solution was serially diluted in 100% cyclohexanone to make interim solutions. These served as stock solutions for which final dilutions were made by the Tecan in 50% acetone:50% water (v/v) into 10 or 20ml glass vials. A non-ionic surfactant (Kinetic®) was included in the solution at a volume of 0.01% (v/v). The vials were then inserted into an automated electrostatic sprayer equipped with an atomizing nozzle for application to plants/insects. Lima bean plants (variety Sieva) were grown 2 plants to a pot and selected for treatment at the 1st true leaf stage. Test solutions were sprayed onto the foliage by an auto-mated electrostatic plant sprayer equipped with an atomizing spray nozzle. The plants were dried in the sprayer fume hood and then removed from the sprayer. Each pot was placed into perforated plastic bags with a zip closure. Ten to 11 armyworm larvae were placed into the bag and the bags zipped closed. Test plants were maintained in a growth room at about 25°C and about 20-40% relative humidity for 4 days, avoiding direct exposure to fluorescent light (14:10 light:dark photoperiod) to prevent trapping of heat inside the bags. Mortality and reduced feeding were assessed 4 days after treatment, compared to untreated control plants.

In series [4] the test system is green peach aphid (Myzus persicae). In words: Green Peach Aphid systemic test, artificial diet in 96-well microtiter plates. Particulars: 72 h, adult aphids on treated diet, 3 days, read-out: mortality in comparison with untreated controls. An excerpt:
For evaluating control of green peach aphid (Myzus persicae) through systemic means, the test unit consisted of 96-well-microtiter plates containing liquid artificial diet under an artificial mem brane.
The compounds were formulated using a solution containing 75% v/v water and 25% v/v DMSO. Different concentrations of formulated compounds were pipetted into the aphid diet, using a custom built pipetter, at two replications.
After application, 5 - 8 adult aphids were placed on the artificial membrane inside the microtiter plate wells. The aphids were then allowed to suck on the treated aphid diet and incubated at about 23 ± 1°C and about 50 ± 5 % relative humidity for 3 days. Aphid mortality and fecundity was then visually assessed.

Series [5] concerns boll weevil (Anthonomus grandis). The experiment in a line: Boll weevil test, insect diet with eggs in 96-well microtiter plates. Particulars: 120 h, egg and larval mortality, 5 days, read-out: mortality in comparison with untreated controls. The method, then:
For evaluating control of boll weevil (Anthonomus grandis), the test unit consisted of 96-well-microtiter plates containing an insect diet and 5-10 A. grandis eggs.
The compounds were formulated using a solution containing 75% v/v water and 25% v/v DMSO. Different concentrations of formulated compounds were sprayed onto the insect diet at 5 µl, using a custom-built micro atomizer, at two replications.
After application, microtiter plates were incubated at about 25 ± 1°C and about 75 ± 5 % relative humidity for 5 days. Egg and larval mortality was then visually assessed.

Turning to `CON=C(C)c1nccnc1C(C)NC(=O)c1cc(C(F)(F)F)cc(C(F)(F)F)c1` (stereo not drawn) [Compound I-1, N-[1-[3-[N-methoxy-C-methyl-carbonimidoyl]pyrazin-2-yl]ethyl]-3,5-bis(trifluoromethyl)benzamide], the mortality at 2500 ppm in series [1], in series [2], in series [4] and in series [5] was at least 75% throughout. The mortality at 300 ppm in series [3] (Spodoptera eridania, foliar, 96 h, read-out: mortality in comparison with untreated controls) was at least 75%.
Regarding `CON=C(N)c1nccnc1C(C)N(CC1CC1)C(=O)c1cc(C(F)(F)F)cc(C(F)(F)F)c1` (stereo not drawn) [Compound I-4], the “mortality in comparison with untreated controls” value in series [3] (300 ppm) is “at least 75%”.
